Reference: patent US20260376293A1, “METHODS FOR STUDYING GPR158 PHARMACOLOGY AND IDENTIFICATION OF ITS LIGANDS” (UNIVERSITY OF FLORIDA RESEARCH FOUNDATION, INCORPORATED, priority 2022, published 2026)

Target: T1, GPR158 R173A mutant (Homo sapiens, UniProt Q5T848, R173A)
T1 sequence (Q5T848 24-1215 R173A): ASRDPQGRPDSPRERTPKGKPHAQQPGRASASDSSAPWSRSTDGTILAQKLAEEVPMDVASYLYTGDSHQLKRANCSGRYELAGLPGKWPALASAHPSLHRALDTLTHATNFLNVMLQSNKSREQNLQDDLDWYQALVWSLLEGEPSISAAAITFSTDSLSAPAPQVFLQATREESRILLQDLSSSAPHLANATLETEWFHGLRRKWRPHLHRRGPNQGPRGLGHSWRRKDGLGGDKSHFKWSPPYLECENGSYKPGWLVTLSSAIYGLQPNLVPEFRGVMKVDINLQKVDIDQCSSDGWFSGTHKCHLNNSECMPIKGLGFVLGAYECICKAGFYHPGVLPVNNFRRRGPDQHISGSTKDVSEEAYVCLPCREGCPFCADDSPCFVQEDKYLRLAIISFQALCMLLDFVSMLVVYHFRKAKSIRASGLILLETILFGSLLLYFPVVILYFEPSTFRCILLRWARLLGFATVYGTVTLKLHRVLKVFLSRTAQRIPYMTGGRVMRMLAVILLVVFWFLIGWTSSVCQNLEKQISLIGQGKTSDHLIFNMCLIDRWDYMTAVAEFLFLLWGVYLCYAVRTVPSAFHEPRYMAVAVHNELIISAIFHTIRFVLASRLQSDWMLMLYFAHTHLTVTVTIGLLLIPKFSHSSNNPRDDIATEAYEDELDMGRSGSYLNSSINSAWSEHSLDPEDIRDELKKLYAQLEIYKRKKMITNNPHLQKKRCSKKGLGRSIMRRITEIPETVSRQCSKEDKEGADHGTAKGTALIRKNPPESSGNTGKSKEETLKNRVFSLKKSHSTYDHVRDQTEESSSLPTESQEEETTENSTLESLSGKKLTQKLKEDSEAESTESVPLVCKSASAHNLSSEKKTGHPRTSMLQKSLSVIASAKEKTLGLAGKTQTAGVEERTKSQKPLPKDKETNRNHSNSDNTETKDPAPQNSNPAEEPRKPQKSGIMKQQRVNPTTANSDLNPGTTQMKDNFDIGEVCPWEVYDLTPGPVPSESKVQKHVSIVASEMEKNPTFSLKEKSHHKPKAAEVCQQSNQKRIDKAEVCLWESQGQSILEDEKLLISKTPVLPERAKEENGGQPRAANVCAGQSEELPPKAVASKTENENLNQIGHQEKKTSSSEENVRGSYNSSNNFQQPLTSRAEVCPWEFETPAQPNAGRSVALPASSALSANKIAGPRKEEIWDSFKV
Assay: Radioligand binding assay on GPR158 mutant R173A
From the text: FIGS. 11A-11G. Probing Cache domain of GPR158 as a ligand binding site A) Computational docking of glycine into putative ligand binding pocket on GPR158 Cache domain. Glycine and directly interacting residues are shown as sticks. Hydrogen bonds and van der Waals interactions are shown as dotted lines. B) Diagram showing interactions in the docked model of glycine against GPR158 Cache domain. Hydrogen bonds are shown as dashed lines, van der Waals interactions are shown as intersecting semicircles, and the secondary structural context of Ser266 and Tyr269 is shown as an arc. Dagger indicates a residue implicated in glycine binding in 11A. C) Radioligand binding assay of ^3H-glycine in cells expressing GPR158 mutants. Data shown mean±s.e.m. of 3 independent experiments, *p<0.05, ns=p>0.05 one-way ANOVA. D) Functional evaluation of GPR158 mutants in GAP BRET assay. Error bars are mean±s.e.m. of 3 independent experiments in triplicate. *p<0.05, **p<0.01, ***p<0.001, ****p<0.0001, ns=p>0.05, two-way ANOVA Columns with no fill (Ctrl), columns with angled-line fill (Glycine) E) Quantification of glycine inhibitory effect on kGAP normalized to the effect seen with WT receptor. […]
Whole cell binding was performed using cDNA of GPR158-venus or each GPR158-venus mutant or empty pcDNA3.1+ for ctrl cells. […] Finally radioactivity was measured using the liquid scintillation analyzer Tri-Carb 4910 TR.

[^3H]-glycine binding: near complete loss
Structure (SMILES): NCC(=O)O [^3H-glycine, [^3H]-glycine]
